From US9073895B2 (Boehringer Ingelheim International GmbH, priority 2010, dated 2015)

Columns and labels:
[1] = molecular target: T1, recombinant human FLAP protein (Homo sapiens, UniProt P20292); experiment: FLAP binding assay (SPA, displacement of [125I]L-691,831); conditions: membranes of sf9 cells expressing human FLAP, [125I]L-691,831 probe; read-out: hFLAP binding IC50
T1 construct: made in house; host or cells: Sf9 insect cells (membrane fraction, 100,000 x g pellet)
T1 sequence (P20292 1-161): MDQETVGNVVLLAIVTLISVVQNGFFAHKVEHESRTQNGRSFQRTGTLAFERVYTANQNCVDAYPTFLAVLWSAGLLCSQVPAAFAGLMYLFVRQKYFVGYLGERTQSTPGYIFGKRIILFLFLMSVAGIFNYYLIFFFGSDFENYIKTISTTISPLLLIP
Method in brief: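 Membranes from sf9 cells expressing human FLAP (5 μg/well) were bound to WGA SPA beads (200 μg/well). Nonspecific binding was defined with 10 μM unlabelled L-691,831.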

[2] = tested on: synthesis of LTB4 in human whole blood; experiment: Human whole blood LTB4 production inhibition assay; format: cell-based; conditions: heparinized human whole blood, calcimycin 20 μM, plasma LTB4; read-out: HuWB IC50
Method: Compounds are additionally tested in a human whole blood assay to determine their ability to inhibit the synthesis of LTB4 in a cellular system. Compounds are combined with heparinized human whole blood and incubated for 15 minutes at 37° C. Calcimycin (20 μM final, prepared in phosphate-buffered saline, pH 7.4) is then added and the mixture is incubated for another 30 minutes at 37° C. The samples are centrifuged for 5 min at low speed (1500×g) and the plasma layer is removed. Plasma LTB4 concentrations are then measured using an antibody-based homogenous time-resolved fluorescence method (CisBio, Bedford, Mass.).

SMILES | IC50 [1] | IC50 [2]
Cc1nc(-c2ccc(NC(=O)C(c3ccc(-c4cnc(N)nc4)cc3)C(C)C)nc2)cs1 (stereo not drawn) [Example 133, 2-[4-(2-aminopyrimidin-5-yl)phenyl]-3-methyl-N-[5-(2-methyl-1,3-thiazol-4-yl)pyridin-2-yl]butanamide] | 9.4 nM | 4400 nM
Cc1nc(-c2ccc(NC(=O)C(C)(C)c3ccc(-c4cnc(N)nc4)cc3)nc2)cs1 [Example 235, 2-[4-(2-aminopyrimidin-5-yl)phenyl]-2-methyl-N-[5-(2-methyl-1,3-thiazol-4-yl)pyridin-2-yl]propanamide] | 5.4 nM | 627 nM
Nc1ncc(-c2ccc(C3(C(=O)Nc4cc(-c5ccccc5)no4)CCOCC3)cc2)cn1 [Example 37, 4-[4-(2-aminopyrimidin-5-yl)phenyl]-N-(3-phenyl-1,2-oxazol-5-yl)tetrahydro-2H-pyran-4-carboxamide] | 35 nM | > 3000 nM
Nc1ncc(-c2ccc(C3(C(=O)Nc4ccncc4)CCC3)cc2)cn1 [Example 177, 1-[4-(2-aminopyrimidin-5-yl)phenyl]-N-(pyridin-4-yl)cyclobutanecarboxamide] | 5.1 nM | 217 nM
CC(C)n1ncc2cc(NC(=O)C3(c4ccc(-c5cnc(N)nc5)cc4)CCOCC3)cnc21 [Example 68, 4-[4-(2-aminopyrimidin-5-yl)phenyl]-N-[1-(propan-2-yl)-1H-pyrazolo[3,4-b]pyridin-5-yl)tetrahydro-2H-pyran-4-carboxamide] | 68.5 nM | 1210 nM
Cc1cnccc1NC(=O)C1(c2ccc(-c3cnc(N)nc3)cc2)CCC1 [Example 196, 1-[4-(2-aminopyrimidin-5-yl)phenyl]-N-(3-methylpyridin-4-yl)cyclobutanecarboxamide] | 50.7 nM | 2910 nM
Nc1ncc(-c2ccc(C3(C(=O)Nc4ccc(-n5ccnc5)cc4)CCOCC3)cc2)cn1 [Example 154, 4-[4-(2-aminopyrimidin-5-yl)phenyl]-N-[4-(1H-imidazol-1-yl)phenyl]tetrahydro-2H-pyran-4-carboxamide] | 63.3 nM | 1370 nM
Nc1ncc(-c2ccc(C3(C(=O)Nc4ccc(N5CCOCC5)c(Cl)c4)CCOCC3)cc2)cn1 [Example 72, 4-[4-(2-aminopyrimidin-5-yl)phenyl]-N-[3-chloro-4-(mopholin-4-yl)phenyl]tetrahydro-2H-pyran-4-carboxamide] | 28.3 nM | 244 nM
COc1ccc(-c2ccc(NC(=O)C(C)(c3ccc(-c4cnc5[nH]ccc5c4)cc3)C(C)C)nc2)cn1 (stereo not drawn) [Example 166, N-(6'-methoxy-3,3'-bipyridin-6-yl)-2,3-dimethyl-2-[4-(1H-pyrolo[2,3-b]pyridin-5-yl)phenyl]butanamide] | 3 nM | 332 nM
Nc1ncc(-c2ccc(C3(C(=O)Nc4ccc(S(=O)(=O)N5CCOCC5)cc4)CCC3)cc2)cn1 [Example 88, 1-[4-(2-aminopyrimidin-5-yl)phenyl]-N-[4-(mopholin-4-ylsulfonyl)phenyl]cyclobutane-carboxamide] | 5.65 nM | 278 nM
Cc1nc(-c2ccc(NC(=O)C(c3ccc(-c4cnc(N)nc4)cc3)C(C)(C)C)nc2)cs1 (stereo not drawn) [Example 90, 2-[4-(2-aminopyrimidin-5-yl)phenyl]-3,3-dimethyl-N-[5-(2-methyl-1,3-thiazol-4-yl)pyridin-2-yl]butanamide] | 31.5 nM | 2080 nM
Nc1ncc(-c2ccc(C3(C(=O)Nc4ccc(O)nc4)CCC3)cc2)cn1 [Example 221, 1-[4-(2-aminopyrimidin-5-yl)phenyl]-N-(6-hydroxypyridin-3-yl)cyclobutanecarboxamide] | 290 nM | > 3000 nM
CN(C)S(=O)(=O)c1ccc(NC(=O)C2(c3ccc(-c4cnc(N)nc4)cc3)CCC2)cc1 [Example 87, 1-[4-(2-aminopyrimidin-5-yl)phenyl]-N-[4-(dimethylsulfamoyl)phenyl] cyclobutanecarboxamide] | 4 nM | 192 nM
O=C(Nc1ccc(Oc2ccccc2)cn1)C1(c2ccc(-c3cnc4[nH]ccc4c3)cc2)CCC1 [Example 198, N-(5-phenoxypyridin-2-yl)-1-[4-(1H-pyrrolo[2,3-b]pyridin-5-yl)phenyl]cyclobutane-carboxamide] | 3.75 nM | 180 nM
N#Cc1ccc(NC(=O)C2(c3ccc(-c4cnc(N)nc4)cc3)CCC2)nc1 [Example 232, 1-[4-(2-aminopyrimidin-5-yl)phenyl]-N-(5-cyanopyridin-2-yl)cyclobutanecarboxamide] | 7.45 nM | 152 nM
Nc1ncc(-c2ccc(C3(C(=O)Nc4nc(-c5ccccc5)ns4)CCOCC3)cc2)cn1 [Example 36, 4-[4-(2-aminopyrimidin-5-yl)phenyl]-N-(3-phenyl-1,2,4-thiadiazol-5-yl)tetrahydro-2H-pyran-4-carboxamide] | 13.3 nM | > 3000 nM
Nc1ncc(-c2ccc(C3(C(=O)Nc4ccc5ccccc5n4)CCOCC3)cc2)cn1 [Example 142, 4-[4-(2-aminopyrimidin-5-yl)phenyl]-N-(quinolin-2-yl)tetrahydro-2H-pyran-4-carboxamide] | 39 nM | 11300 nM
COc1ccc(-c2ccc(NC(=O)C(C)(c3ccc(-c4cnc(N)nc4)cc3)C(C)C)nc2)cn1 (stereo not drawn) [Example 163, 2-[4-(2-aminopyrimidin-5-yl)phenyl]-N-(6'-methoxy-3,3'-bipyridin-6-yl)-2,3-dimethylbutanamide] | 6.75 nM | 404 nM
Cc1nc(-c2ccc(NC(=O)C3(c4ccc(-c5cnc(N)nc5)cc4)CCOCC3)cc2)cs1 [Example 121, 4-[4-(2-aminopyrimidin-5-yl)phenyl]-N-[4-(2-methyl-1,3-thiazol-4-yl)phenyl]tetrahydro-2H-pyran-4-carboxamide] | 19 nM | 1880 nM
Cc1nc(-c2ccc(NC(=O)C(C)(c3ccc(-c4cnn(C)c4)cc3)C(C)C)cc2)cs1 (stereo not drawn) [Example 118, 2,3-dimethyl-2-[4-(1-methyl-1H-pyrazol-4-yl)phenyl]-N-[4-(2-methyl-1,3-thiazol-4-yl)phenyl]butanamide] | 260 nM | 10700 nM
Cc1nc(-c2ccc(NC(=O)C3(c4ccc(-c5cnc6c(c5)CCN6)cc4)CCOCC3)nc2)cs1 [Example 153, 4-[4-(2,3-dihydro-1H-pyrrolo[2,3-b]pyridin-5-yl)phenyl]-N-[5-(2-methyl-1,3-thiazol-4-yl)pyridin-2-yl]tetrahydro-2H-pyran-4-carboxamide] | 7.8 nM | 509 nM
Cc1nc(-c2ccc(NC(=O)C(C)(c3ccc(-c4cnc(N)nc4)cc3)C(C)C)nc2)cs1 (stereo not drawn) [Example 119, 2-[4-(2-aminopyrimidin-5-yl)phenyl]-2,3-dimethyl-N-[5-(2-methyl-1,3-thiazol-4-yl)pyridin-2-yl]butanamide] | 3.95 nM | 986 nM
Cc1cc(NC(=O)C2(c3ccc(-c4cnc(N)nc4)cc3)CCOCC2)cc(C(F)(F)F)c1 [Example 46, 4-[4-(2-aminopyrimidin-5-yl)phenyl]-N-[3-methyl-5-(trifluoromethyl)phenyl] tetrahydro-2H-pyran-4-carboxamide] | 180 nM | > 3000 nM
N#Cc1ccc(NC(=O)C2(c3ccc(-c4cnc(N)nc4)cc3)CCOCC2)cc1Cl [Example 3, 4-[4-(2-aminopyrimidin-5-yl)phenyl]-N-(3-chloro-4-cyanophenyl)tetrahydro-2H-pyran-4-carboxamide] | 11.2 nM | 328 nM
N#Cc1ccc(NC(=O)C2(c3ccc(-c4cnc(N)nc4)cc3)CCOCC2)nc1 [Example 32, 4-[4-(2-aminopyrimidin-5-yl)phenyl]-N-(5-cyanopyridin-2-yl)tetrahydro-2H-pyran-4-carboxamide] | 46.5 nM | 1120 nM
O=C(Nc1ccncn1)C1(c2ccc(-c3cnc4[nH]ccc4c3)cc2)CCC1 [Example 188, N-(pyrimidin-4-yl)-1-[4-(1H-pyrrolo[2,3-b]pyridin-5-yl)phenyl]cyclobutanecarboxamide] | 1.65 nM | 130 nM
Nc1ncc(-c2ccc(C3(C(=O)Nc4ccncn4)CCC3)cc2)cn1 [Example 185, 1-[4-(2-aminopyrimidin-5-yl)phenyl]-N-(pyrimidin-4-yl)cyclobutanecarboxamide] | 17.5 nM | 955 nM
Nc1ncc(-c2ccc(C3(C(=O)Nc4ccc(-c5cccnc5)cc4)CCOCC3)cc2)cn1 [Example 45, 4-[4-(2-aminopyrimidin-5-yl)phenyl]-N-[4-(pyridin-3-yl)phenyl]tetrahydro-2H-pyran-4-carboxamide] | 6.2 nM | 459 nM
COc1cncc(-c2ccc(NC(=O)C3(c4ccc(-c5cnc6[nH]ccc6c5)cc4)CCOCC3)nc2)c1 [Example 167, N-(5'-methoxy-3,3'-bipyridin-6-yl)-4-[4-(1H-pyrrolo[2,3-b]pyridin-5-yl)phenyl]tetrahydro-2H-pyran-4-carboxamide] | 4.7 nM | 354 nM
Cn1nccc1-c1ccc(NC(=O)C2(c3ccc(-c4cnc(N)nc4)cc3)CCOCC2)nc1 [Example 218, 4-[4-(2-aminopyrimidin-5-yl)phenyl]-N-[5-(1-methyl-1H-pyrazol-5-yl)pyridin-2-yl]tetrahydro-2H-pyran-4-carboxamide] | 32.5 nM | 958 nM
